Assay results from patent US8552068B2, “Compositions and methods” (priority 2004, dated 2013).
“Also recorded” adds a separate entry of the source.

Tests used:
[1] = tested on: Artificially-ventilated pentobarbital anesthetised rabbits; experiment: Intravenous infusion of carrier solutions saturated with pure nitric oxide gas; exhaled NO and MAP; assay type: in vivo, rabbit
Protocol: Male white New Zealand rabbits were subjected to different doses of an intravenous infusion of NO-substituted solutions at different doses. Several physiological parameters were measured during the experiments, including NO concentration in mixed exhaled gas (FENO).
(§1) Different carrier media solutions (table 1) were dissolved and diluted with saline or water to obtain different concentration of the solutions. The solution was then placed in a gas-tight chamber and deoxygenated by means of helium bubbling for 10 min. The glass chamber was then gassed with pure nitric oxide gas for 3-4 min.
Data are given as mean±SEM.

[2] = tested on: artificially ventilated pentobarbital anaesthetized rabbits; experiment: Effects of L-NAME infusion in anaesthetised rabbit; conditions: L-NAME 30 mg kg^−1 throughout 10 min
Source text: The experiments were approved by the local animal ethics committee. […] The animals were placed in supine position and tracheotomised just below the cricoid cartilage to allow mechanical ventilation using a tracheal cannula with an outer diameter of 5 mm. […] The ventilator was supplied with NO-free air using a charcoal filter (110×11 cm). […] The minute ventilation was 0.64-0.96 l min^−1. To the other side arm a pressure transducer (Statham, Hato Rey, Puerto Rico) was connected thus monitoring the insufflation pressure. The gas from the ventilator outlet was led through a switching valve to either of two beakers creating a positive end-expiratory pressure (PEEP) of 1-2 CmH2O or 4-5 cmhbO. During the experiment the gas flow was altered between the lower PEEP (9 min) and the higher PEEP (1 min) with an interval of totally 10 min. […] A heparinized catheter was inserted in the left common carotid artery for blood pressure and heart rate recordings (pressure transducer, Statham, Hato Rey, Puerto Rico), and arterial blood sampling. Another catheter was inserted in the right jugular vein for drug and muscle emboli administration. […] The muscles from the anterior compartment of the right lower hind limb were resected and placed in normal saline. Hereafter the animals were allowed a 30-60 min intervention-free period to obtain stable circulatory conditions and stable concentrations of expired NO.
NO concentration, in mixed exhaled gas, was continuously measured by means of a chemiluminescence based system (Niox, Aerocrine AB, Solna, Sweden) sampling at 100 ml min^−1 at the end of a mixing chamber connected to the ventilator exhaust. The full mixing of expired air thus measured on was intermittently checked by monitoring CO2 concentration in the same chamber. In a few experiments, gas for NO measurement was sampled from the trachea at the same point as for tidal CO2 measurements, thus yielding breath by breath NO concentrations. Calibration was done using certified NO standard gas in nitrogen (AGA Specialgas, Lidingδ, Sweden).
Blood samples were collected and analyzed for blood gases and acid-base status (ABL 300, Radiometer A/S, Copenhagen, Denmark) before L-NAME administration (group 2, time=−40 min) and shortly before muscle emboli challenge (group 1 and 2, time=−5 min). […] Arterial blood samples were collected and analysed at 10 min, 20 min, 40 min and 60 min after embolization. NO concentration in exhaled gas, end-tidal CO2, heart rate, mean arterial pressure and insufflation pressure was continuously monitored on a Grass Polygraph (Grass Instruments Co, Quincy, Mass., USA) during the experiments.

[3] = tested on: pulmonary embolism / venous gas embolism in NO-synthesis inhibited animals; experiment: Treatment of embolism with NO in lipid emulsion in animals with inhibited NO production; assay type: in vivo; conditions: animal with inhibited NO production
Source text: It is contemplated that the NO infusion exerts vasodilatory effects in the pulmonary circulation, and/or mild vasodilatory effect on systemic circulation, and inhibits thrombocyte aggregation, or a combination of these effects.
The beneficial effects may be induction of vasodilation in the pulmonary vasculature, inhibition of aggregation of thrombocytes and/or minor vasodilation in the whole or parts of the systemic circulation, for example in the coronary circulation.

[4] = Deoxygenation and exposure of carrier to NO gas (suitability for infusion); assay type: physicochemical
Protocol: as §1

Compound | effect as NO carrier / NO delivering capacity (words) ([1]; compared to the saline control) | Exhaled NO, Change (%) ([1]; infusion versus pre-infusion) | Exhaled NO, Change (absolute value) ([1]; infusion versus pre-infusion) [ppb] | MAP, Change (%) ([1]; infusion versus pre-infusion) | MAP, Change (absolute value) ([1]; infusion versus pre-infusion) [cmH2O] | further results
OC[C@@H](O)[C@@H](O)[C@H](O)[C@H](O)CO [Mannitol (20%), Mannitol] | noticeable effect; also recorded: positive results | 55.6 | 4.7 | – | – | –
CC(O)C(=O)O (stereo not drawn) [Lactate] | – | 0 | 0 | −2 | −1.5 | –
C[C@H](N)C(=O)O [Alanine] | – | 0 | 0 | – | – | –
O=C[C@H](O)[C@H](O)[C@H](O)CO [Ribose (50%), Ribose] | noticeable effect | 77 ± 43 | 8.2 ± 3.0 | – | – | –
O=C[C@H](O)[C@@H](O)[C@@H](O)[C@H](O)CO [Galactose (60%), Galactose] | – | – | – | – | – | Exhaled NO, Change (%) ([1]; rabbit, in vivo): 41%; Exhaled NO, Change (absolute value) ([1]; rabbit, in vivo): 3.3 ppb; effect as NO carrier / NO delivering capacity (words) ([1]; rabbit, in vivo): noticeable effect
O=C[C@H](O)[C@@H](O)[C@H](O)[C@H](O)C(=O)O [Glucuronic acid] | – | 0 | 0 | – | – | –
O=C(O)[C@H](O)[C@@H](O)[C@H](O[C@@H]1O[C@H](CO)[C@H](O)[C@H](O)[C@H]1O)[C@H](O)CO [Lactobionic acid] | noticeable effect | 42 | 8.3 | −35 | −32.4 | –
OCCCO [1,3-Propanediol] | noticeable effect; also recorded: exhibited NO delivering capacity | 562 | 78.2 | −33 | −38.2 | –
N[C@H]1C(O)O[C@H](CO)[C@@H](O)[C@@H]1O (stereo partly drawn) [Glucosamine] | – | −9 | −0.9 | – | – | –
CC(=O)N[C@@H](CS)C(=O)O [N-Acetylcysteine] | noticeable effect | 19 | 4.1 | – | – | –
COC(=O)[C@@H](N)CCCNC(=N)N[N+](=O)[O-] [L-NAME, N^G-nitro-L-arginine methyl ester] | – | – | – | – | – | End-tidal CO2 and the relevant blood gas parameters [2]: normal; exhaled nitric oxide after L-NAME infusion [2]: < 1 ppb; heart rate (HR) after L-NAME infusion [2]: 258 beats min^−1; systemic mean arterial blood pressure (MAP) after L-NAME infusion [2]: 128 cmHaO
PEG 400 | positive results | – | – | – | – | –
NC(CO)CO [2-Amino-1,3-propanediol] | – | 14 | 2.4 | – | – | –
Fucoidan [Fucoidan (10%)] | noticeable effect | 23 | 4.7 | −52 | −55.9 | –
CC(O)CO (stereo not drawn) [1,2-Propanediol] | noticeable effect; also recorded: exhibited NO delivering capacity | 217 | 27.9 | −16 | −14.7 | –
OC[C@H]1O[C@@](CO)(O[C@H]2O[C@H](CO)[C@@H](O)[C@H](O)[C@H]2O)[C@@H](O)[C@@H]1O [Sucrose (60%), Sucrose] | noticeable effect | 75 | 11.2 | – | – | –
C[C@H](O)[C@@H](O)[C@@H](O)[C@H](O)C=O [Fucose] | noticeable effect | 22 | 4.1 | – | – | –

Compound | effect as NO carrier / NO delivering capacity (words) ([1]; compared to the saline control) | Exhaled NO, Change (%) ([1]; infusion versus pre-infusion) | Exhaled NO, Change (absolute value) ([1]; infusion versus pre-infusion) [ppb] | MAP, Change (%) ([1]; infusion versus pre-infusion) | MAP, Change (absolute value) ([1]; infusion versus pre-infusion) [cmH2O] | further results
CCCO [Carrier 1-Propanol, 1-Propanol] | – | 733 | – | −11 | – | –
Dextran [Dextran (15%)] | noticeable effect; also recorded: positive results | 24 | 2.8 | −34 | −45.5 | –
CC(C)O [Carrier 2-PropanoI, 2-propanol] | noticeable effect; also recorded: marked effect | 1400 | 180 | −15 | −14.7 | –
NCC(=O)O [Glycine] | – | −4 | −0.6 | – | – | –
CCO [Etanol] | – | 0 | 0 | 0 | 0 | –
Inulin [Inulin (15%)] | noticeable effect | 12 | 1.8 | −31 | −26.5 | –
OCC(O)CO [Glycerol] | act as a selective NO carrier | 475 ± 120 | 63.3 ± 10.5 | – | – | effect as NO carrier / NO delivering capacity (words) ([1]; compared to the saline control, listed as glycerol): noticeable effect
[N]=O [inhaled nitric oxide, nitric oxide] | – | – | – | – | – | treatment of venous gas embolism [3]: impossible to treat
O=CC[C@H](O)[C@H](O)CO [2-deoxy-Ribose] | noticeable effect | 269 | 32.7 | – | – | –
N=C(N)NCCC[C@H](N)C(=O)O [Arginine] | – | – | – | – | – | Exhaled NO, Change (%) ([1]; rabbit, in vivo): 3%; Exhaled NO, Change (absolute value) ([1]; rabbit, in vivo): 0.6 ppb
O=C(CO)[C@@H](O)[C@H](O)[C@H](O)CO [Fructose (60%), Fructose] | noticeable effect | 88 | 13.1 | – | – | –
Polyethylene glycol | noticeable effect | 61 | 11.2 | −19 | −17.6 | –
Heparin [Heparin (15000 IU/ml, 10%)] | – | −5 | −0.6 | −12 | −8.8 | –
COC1O[C@H](CO)[C@@H](O)[C@H]1O (stereo partly drawn) [1-O-methyI-Ribose, 1-O-methyl-ribose] | noticeable effect | 1284 | 155.9 | −50 | −50.0 | –
N[C@@H](CS)C(=O)O [L-cysteine] | – | – | – | – | – | behaviour when deoxygenated and exposed to NO gas [4]: a copious precipitate, unsuitable for infusion, was formed
NCC(O)CO (stereo not drawn) [3-Amino-1,2-propanediol] | – | 0 | 0 | – | – | –
OC[C@@H](O)[C@@H](O)[C@H](O)[C@@H](O)CO [Sorbitol (60%), Sorbitol] | noticeable effect | 60 | 4.2 | – | – | –
